Experimental data reported in EP4778924A1 (Huons Co., Ltd., priority 2023, dated 2025).
Entries after “also recorded” stand apart in the source; their conditions may differ. Each block holds one compound with its values, some of them ahead of it.

Key:
[1] = molecular target: T1, Proton Pump (H^+,K^+-ATPase) (Sus scrofa, UniProt P19156); test: Inhibitory activity on proton pump (H+,K+-ATPase) activity, porcine gastric vesicles, malachite green readout; type: biochemical; conditions: for IC50: porcine gastric vesicles, pH 6.5, 8 mM KCl, 0.2 mM ATP; for inhibitory activity against proton pump activity: result in words
T1 construct: gastric vesicles were isolated from porcine stomachs; from tissue; host or cells: porcine stomach (gastric vesicles)
T1 sequence (P19156 2-1034 limits assumed): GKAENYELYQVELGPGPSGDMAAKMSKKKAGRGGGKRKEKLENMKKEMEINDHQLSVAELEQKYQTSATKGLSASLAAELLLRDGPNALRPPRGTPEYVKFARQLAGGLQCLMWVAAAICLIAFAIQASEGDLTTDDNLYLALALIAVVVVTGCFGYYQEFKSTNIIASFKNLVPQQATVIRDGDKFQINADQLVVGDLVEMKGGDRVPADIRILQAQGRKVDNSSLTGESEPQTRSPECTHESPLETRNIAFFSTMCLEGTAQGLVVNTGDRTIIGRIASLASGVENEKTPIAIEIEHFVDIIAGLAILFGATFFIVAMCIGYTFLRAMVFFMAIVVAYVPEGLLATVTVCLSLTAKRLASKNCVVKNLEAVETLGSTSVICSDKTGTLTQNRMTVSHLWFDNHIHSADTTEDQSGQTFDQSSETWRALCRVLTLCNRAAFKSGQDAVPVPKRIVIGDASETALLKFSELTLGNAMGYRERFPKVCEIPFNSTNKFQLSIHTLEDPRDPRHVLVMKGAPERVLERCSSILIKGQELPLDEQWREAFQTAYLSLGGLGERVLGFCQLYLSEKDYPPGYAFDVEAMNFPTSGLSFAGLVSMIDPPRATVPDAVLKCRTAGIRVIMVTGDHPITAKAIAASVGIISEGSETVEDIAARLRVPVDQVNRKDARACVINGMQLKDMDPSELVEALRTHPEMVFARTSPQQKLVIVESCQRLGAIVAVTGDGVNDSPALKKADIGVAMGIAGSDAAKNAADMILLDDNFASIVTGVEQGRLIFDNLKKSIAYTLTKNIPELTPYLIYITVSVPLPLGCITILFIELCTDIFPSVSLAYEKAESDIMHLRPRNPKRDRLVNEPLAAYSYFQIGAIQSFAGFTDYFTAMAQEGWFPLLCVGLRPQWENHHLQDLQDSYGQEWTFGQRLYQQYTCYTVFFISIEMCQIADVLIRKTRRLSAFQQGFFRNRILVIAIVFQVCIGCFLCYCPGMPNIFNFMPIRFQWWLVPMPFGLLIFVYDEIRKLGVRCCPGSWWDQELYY
T1 sequence (P18434 whole entry partner): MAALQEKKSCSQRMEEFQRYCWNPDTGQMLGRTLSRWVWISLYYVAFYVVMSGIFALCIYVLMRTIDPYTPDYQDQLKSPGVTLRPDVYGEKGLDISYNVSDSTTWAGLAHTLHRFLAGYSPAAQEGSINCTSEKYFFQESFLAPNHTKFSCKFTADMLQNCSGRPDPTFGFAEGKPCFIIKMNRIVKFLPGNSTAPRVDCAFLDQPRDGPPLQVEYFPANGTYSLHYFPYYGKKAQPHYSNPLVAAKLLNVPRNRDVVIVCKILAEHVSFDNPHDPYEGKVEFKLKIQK
Method in brief: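 Porcine gastric vesicles (100 ng) preincubated 30 min at 37°C with […] valinomycin and compound (0.1% DMSO final) in 50 mM Tris-HEPES, 5 mM MgCl2, 8 mM KCl, pH 6.5, then 0.2 mM ATP for 20 min at 37°C. Released phosphate measured by malachite green at 620 nm; IC50 via nonlinear regression of % inhibition.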

[2] = test system: Pylorus-Ligated Rats; test: Inhibitory activity on basal gastric acid secretion in pylorus-ligated rats (Shay's rat model); type: in vivo, male Sprague Dawley (SD) rats; conditions: for inhibition in vivo at 2 mg/kg: Rattus norvegicus, po, read-out: GERD (rat/mpk); for inhibitory activity against basal gastric acid secretion: result in words, pyloric-ligated rats
Description: Specifically, male Sprague Dawley (SD) rats (weighing 180-220 g) were fasted for 24 hours with only water, and then randomly assigned to groups (n=4-5) after measuring body weight. The negative control group was orally administered 10% dimethylsulfoxide (DMSO)/10% Cremophor EL/80% D.W. at 2 mL/kg, and the test group was orally administered the test compound at 2 mg/kg/2 mL. One hour after administration, the rats' abdominal cavity was incised under isoflurane anesthesia, the stomach was exposed, and the pylorus was ligated. Three hours after ligation, the test animals were sacrificed and the stomach contents were collected by laparotomy again. The contents were centrifuged (3,000 rpm, 10 min), and only the supernatant was separated to obtain gastric juice. Afterwards, gastric fluid volume measurement, gastric fluid pH measurement, NaOH titration, and total gastric acid secretion calculation (gastric fluid volume × 0.1 N NaOH titer × 100) were sequentially performed.

Structure (SMILES): CC(=O)Nc1cc(NCc2c(C)cc(F)cc2C)c2nc(C)c(C)n2c1.Cl [Example 45, N-(8-((4-fluoro-2,6-dimethylbenzyl)amino)-2,3-dimethylimidazo[1,2-a]pyridin-6-yl)acetamide hydrochloride]
- GERD (rat/mpk) ([2]; % inhibitory activity on total gastric acid secretion, 2 mg/kg oral, pylorus ligated 1 h after administration, stomach contents collected 3 h after ligation): A (A≥90%)
- inhibitory activity against basal gastric acid secretion ([2]; 2 mg/kg oral): inhibitory activity

Structure (SMILES): Cc1cc(F)cc(C)c1CNc1cc(NC(=O)CO)cn2c(C)c(C)nc12.O=C(O)CC(O)(CC(=O)O)C(=O)O [Example 86, N-(8-((4-fluoro-2,6-dimethylbenzyl)amino)-2,3-dimethylimidazo[1,2-a]pyridin-6-yl)-2-hydroxyacetamide citrate]
- IC50 [1]: < 50 nM
- inhibition in vivo at 2 mg/kg [2]: ≥ 90%
- inhibitory activity against basal gastric acid secretion ([2]; 2 mg/kg oral): inhibitory activity

Structure (SMILES): COCC(=O)Nc1cc(NCc2c(C)cc(F)cc2C)c2nc(C)c(C)n2c1.O=C(O)CC(O)(CC(=O)O)C(=O)O [Example 100, N-(8-((4-fluoro-2,6-dimethylbenzyl)amino)-2,3-dimethylimidazo[1,2-a]pyridin-6-yl)-2-methoxyacetamide citrate]
- IC50 [1]: < 50 nM
- inhibition in vivo at 2 mg/kg [2]: ≥ 90%
- inhibitory activity against basal gastric acid secretion ([2]; 2 mg/kg oral): inhibitory activity

Structure (SMILES): Cc1cccc(C)c1CNc1cc(NC(=O)CCO)cn2c(C)c(C)nc12.O=C(O)CC(O)(CC(=O)O)C(=O)O [Example 102, N-(8-((2,6-dimethylbenzyl)amino)-2,3-dimethylimidazo[1,2-a]pyridin-6-yl)-3-hydroxypropanamide citrate]
- IC50 [1]: < 50 nM
- inhibition in vivo at 2 mg/kg [2]: ≥ 90%
- inhibitory activity against basal gastric acid secretion ([2]; 2 mg/kg oral): inhibitory activity

Structure (SMILES): Cc1cc(F)cc(C)c1CNc1cc(NC(=O)CCO)cn2c(C)c(C)nc12.O=C(O)CC(O)(CC(=O)O)C(=O)O [Example 101, N-(8-((4-fluoro-2,6-dimethylbenzyl)amino)-2,3-dimethylimidazo[1,2-a]pyridin-6-yl)-3-hydroxypropanamide citrate]
- IC50 [1]: < 50 nM
- inhibition in vivo at 2 mg/kg [2]: 70 to 80%
- inhibitory activity against basal gastric acid secretion ([2]; 2 mg/kg oral, citrate, 2 mg/kg): inhibitory activity; also recorded: somewhat reduced

More lines, main results first:

- IC50 [1]: < 50 nM
- inhibitory activity against proton pump activity [1]: excellent inhibitory properties
Structure (SMILES): Cc1cccc(C)c1CNc1cc(NC(=O)CO)cn2c(C)c(C)nc12 [Example 26, N-(8-((2,6-dimethylbenzyl)amino)-2,3-dimethylimidazo[1,2-a]pyridin-6-yl)-2-hydroxyacetamide]
- inhibition in vivo at 2 mg/kg [2]: ≥ 90%
- inhibitory activity against basal gastric acid secretion ([2]; 2 mg/kg oral): inhibitory activity

- IC50 [1]: < 50 nM
- inhibitory activity against proton pump activity [1]: excellent inhibitory properties
Structure (SMILES): Cc1cccc(C)c1CNc1cc(N2C(=O)CNC2=O)cn2c(C)c(C)nc12 [Example 60, 3-(8-((2,6-dimethylbenzyl)amino)-2,3-dimethylimidazo[1,2-a]pyridin-6-yl)imidazolidine-2,4-dione]
- inhibition in vivo at 2 mg/kg [2]: ≥ 90%
- inhibitory activity against basal gastric acid secretion ([2]; 2 mg/kg oral): inhibitory activity

- IC50 [1]: < 50 nM
- inhibitory activity against proton pump activity [1]: excellent inhibitory properties
Structure (SMILES): CC(=O)Nc1cc(NCc2c(C)cccc2C)c2nc(C)c(C)n2c1 [Example 4, N-(8-((2,6-dimethylbenzyl)amino)-2,3-dimethylimidazo[1,2-a]pyridin-6-yl)acetamide]
- inhibition in vivo at 2 mg/kg [2]: ≥ 90%
- inhibitory activity against basal gastric acid secretion ([2]; 2 mg/kg oral): inhibitory activity

- IC50 [1]: < 50 nM
- inhibitory activity against proton pump activity [1]: excellent inhibitory properties
Structure (SMILES): COCC(=O)Nc1cc(NCc2c(C)cccc2C)c2nc(C)c(C)n2c1 [Example 15, N-(8-((2,6-dimethylbenzyl)amino)-2,3-dimethylimidazo[1,2-a]pyridin-6-yl)-2-methoxyacetamide]
- inhibition in vivo at 2 mg/kg [2]: ≥ 90%
- inhibitory activity against basal gastric acid secretion ([2]; 2 mg/kg oral): inhibitory activity

- IC50 [1]: < 50 nM
- inhibitory activity against proton pump activity [1]: excellent inhibitory properties
Structure (SMILES): CC(=O)Nc1cc(NCc2c(C)cc(F)cc2C)c2nc(C)c(C)n2c1 [Example 21, N-(8-((4-fluoro-2,6-dimethylbenzyl)amino)-2,3-dimethylimidazo[1,2-a]pyridin-6-yl)acetamide]
- inhibition in vivo at 2 mg/kg [2]: ≥ 90%
- inhibitory activity against basal gastric acid secretion ([2]; 2 mg/kg oral): inhibitory activity
